# Laboratory results as given in patent publication US20260174778A1, “SULFONAMIDE COMPOUND, AND PREPARATION METHOD THEREFOR AND USE THEREOF” (SHANGHAI HENLIUS BIOTECH, INC., priority 2023, published 2026).
# Columns and labels:
# [1] = tested on: ER-positive breast cancer; conditions: preclinical studies, in vivo and in vitro; cited from earlier work
# KAT6A = biological target: T1, KAT6A (Homo sapiens, UniProt Q92794); experiment: Inhibition of human KAT enzymes, radioisotope method: KAT6A; format: biochemical; conditions: KAT6A (488-778)
# T1 construct: purchased ACTIVE MOTIF 81223
# From the text: (§1) Test Example 2: Selective Inhibitory Effects of Test Compounds on Human KAT6 Enzymes (Radioisotope Method)
# (§2) • 1. KAT6A (ACTIVE MOTIF, Cat. No. 81223) • 2. KAT5 (BPS, Cat. No. 79422) • 3. KAT7 (ACTIVE MOTIF, Cat. No. 31889) • 4. KAT6B (ACTIVE MOTIF, Cat. No. 81224) • 5. Acetyl coenzyme A, [Acetyl-^3H, 250 μCi (9.25 MBq](PEIRKIN4 ELMER, Cat. No. NET290250UC) • 6. Acetyl coenzyme A (CAYMVAN, Cat. No. 16160) • 7. 384-well Flashplate (Perkin Elmer, Cat. No. SMP410A001PK) • 8. Garcinol (MCE, Cat. No. HY-107569) • 9. Automatic microplate pipetting system (Precision, PRC384U, BioTek) • 10. Ultrasonic nanoliter liquid handling system (Echo 650 Liquid Handler, Echo 650, Labcyte) • 11. Centrifuge (Avanti J-15R, Beckman Coulter) • 12. Liquid scintillation counter (Microplate Counter, Microbeta2, Perkin Elmer)
# (§3) • 1. For KAT6A and KAT7, a 1× assay buffer was prepared as follows: 10 mM Tris-HCl pH 8.0, 0.01% Tween-20, and 1 mM DTT; for KAT6B and KAT5, a 1× assay buffer was prepared as follows: 50 mM Tris-HCl pH 8.0, 0.05% Tween-20, and 1 mM DTT. • 2. Compound preparation: For KAT6A, KAT6B, and KAT7, the final concentration of the compounds started at 1 μM, followed by a 5-fold serial dilution across a total of 7 concentration gradients; for KAT5, the final concentration of the compounds started at 10 μM, followed by a 5-fold serial dilution across a total of 7 concentration gradients. • 3. Substrate reaction solution preparation: The mixed substrates of H4 peptide and [3H]acetyl coenzyme A at final concentrations were prepared using the respective 1× assay buffers, as shown in Table 4.
# (§4) • 1. The enzyme solution was transferred to 384-well reaction plates at 10 μL/well. For each negative control well, 10 μL of the 1× assay buffer was transferred. The plates were then centrifuged at 1000 RPM for 1 min and incubated at room temperature for 15 min. • 2. The substrate reaction solution was added at 10 μL/well, and the plates were centrifuged at 1000 RPM for 1 min to start the reaction. • 3. The samples for KAT6A, KAT6B, KAT7, KAT8, and KAT5 were then incubated at room temperature for 60 min, 120 min, 45 min, 60 min, and 120 min, respectively. • 4. Stop solution preparation: A stop solution was prepared by diluting 50 µM cold Ac-CoA in 1× buffer. • 5. The stop solution was added at 10 μL/well, and the plates were centrifuged at […] for 1 min to stop the reaction. • 6. The mixtures in the reaction plates were transferred at 25 μL/well to new plates (Streptavidin FlashPlate HTS PLUS, High Capacity, 384-well). • 7. The plates were incubated at room temperature for at least 60 min and then • 8. read using MicroBeta2.
# (§5) Raw data were obtained in EXCEL, and the inhibition rates were calculated:
# (§6) [formula] [formula] • Max signal: reaction signal from enzyme and substrate; • Sample signal: signal from sample; • Min signal: signal from substrate only (negative control).
# (§7) The inhibition rate data were imported into XLFit Excel, and IC50 values were obtained using formula (2):
# (§8) [formula] [formula] • Top: value of the top plateau of the fitted regression curve; • Bottom: value of the bottom plateau of the fitted regression curve; • HillSlope: slope of the fitted regression curve.
# (§9) The IC50 value was substituted into formula (3) to obtain the enzymatic activity inhibition constant Ki:
# (§10) [formula] • [S]: substrate concentration; Km: Michaelis constant.
# KAT5 = biological target: T2, KAT5 (Homo sapiens, UniProt Q92993); experiment: Inhibition of human KAT enzymes, radioisotope method: KAT5; format: biochemical; conditions: for Ki: KAT5 (full-length), radioisotope method; for KAT5/ KAT6A / KAT5/ KAT6B: selectivity, ratio of Ki
# T2 construct: purchased BPS 79422
# From the text: as §1, §2, §3, §4, §5, §6, §7, §8, §9, §10
# KAT6B = biological target: T3, KAT6B (Homo sapiens, UniProt Q8WYB5); experiment: Inhibition of human KAT enzymes, radioisotope method: KAT6B; format: biochemical; conditions: KAT6B (718-1008)
# T3 construct: purchased ACTIVE MOTIF 81224
# From the text: as §1, §2, §3, §4, §5, §6, §7, §8, §9, §10
# KAT7 = biological target: T4, KAT7 (Homo sapiens, UniProt O95251); experiment: Inhibition of human KAT enzymes, radioisotope method: KAT7; format: biochemical; conditions: for Ki: KAT7 (full-length), radioisotope method; for KAT7/ KAT6A / KAT7/ KAT6B: selectivity, ratio of Ki
# T4 construct: purchased ACTIVE MOTIF 31889
# From the text: as §1, §2, §3, §4, §5, §6, §7, §8, §9, §10
# [2] = tested on: breast cancer cell line ZR-75-1; experiment: Inhibition of proliferation of breast cancer cell line ZR-75-1 (CellTiter-Glo); format: cell-based; conditions: Homo sapiens, 240 h, proliferation of ZR-75-1 cells, 10 days of incubation, read-out: IC50 (KAT6A)
# T2 sequence (Q92993 whole entry): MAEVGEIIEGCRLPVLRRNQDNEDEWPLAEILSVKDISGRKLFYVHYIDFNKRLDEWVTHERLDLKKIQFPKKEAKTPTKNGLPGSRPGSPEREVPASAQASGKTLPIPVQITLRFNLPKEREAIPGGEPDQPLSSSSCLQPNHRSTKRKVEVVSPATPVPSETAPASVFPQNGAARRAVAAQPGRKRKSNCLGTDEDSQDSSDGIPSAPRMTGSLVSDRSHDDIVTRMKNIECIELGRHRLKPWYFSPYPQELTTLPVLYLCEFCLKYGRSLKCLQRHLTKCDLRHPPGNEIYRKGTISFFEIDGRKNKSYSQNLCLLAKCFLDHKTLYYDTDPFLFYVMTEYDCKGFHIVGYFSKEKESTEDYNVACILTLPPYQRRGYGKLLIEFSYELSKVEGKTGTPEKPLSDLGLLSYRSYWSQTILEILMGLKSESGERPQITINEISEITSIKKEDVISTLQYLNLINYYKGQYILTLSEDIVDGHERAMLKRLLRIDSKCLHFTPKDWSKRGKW
# T4 sequence (O95251 whole entry): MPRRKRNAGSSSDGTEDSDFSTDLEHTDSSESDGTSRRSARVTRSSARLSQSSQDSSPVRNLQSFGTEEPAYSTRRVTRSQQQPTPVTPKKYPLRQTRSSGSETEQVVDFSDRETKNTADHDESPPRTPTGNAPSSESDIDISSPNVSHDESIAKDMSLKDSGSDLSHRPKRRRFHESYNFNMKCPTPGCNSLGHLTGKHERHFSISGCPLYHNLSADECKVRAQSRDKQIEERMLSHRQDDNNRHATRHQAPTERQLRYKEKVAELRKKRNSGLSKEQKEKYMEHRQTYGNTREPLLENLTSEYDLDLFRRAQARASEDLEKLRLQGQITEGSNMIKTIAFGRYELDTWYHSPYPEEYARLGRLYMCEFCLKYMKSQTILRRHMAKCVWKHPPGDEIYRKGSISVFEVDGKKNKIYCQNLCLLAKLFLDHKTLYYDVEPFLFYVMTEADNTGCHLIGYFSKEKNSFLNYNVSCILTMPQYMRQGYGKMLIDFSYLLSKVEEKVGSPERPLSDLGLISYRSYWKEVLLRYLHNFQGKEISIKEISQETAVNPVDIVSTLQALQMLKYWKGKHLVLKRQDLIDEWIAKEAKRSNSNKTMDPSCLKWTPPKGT
# T1 sequence (Q92794 whole entry): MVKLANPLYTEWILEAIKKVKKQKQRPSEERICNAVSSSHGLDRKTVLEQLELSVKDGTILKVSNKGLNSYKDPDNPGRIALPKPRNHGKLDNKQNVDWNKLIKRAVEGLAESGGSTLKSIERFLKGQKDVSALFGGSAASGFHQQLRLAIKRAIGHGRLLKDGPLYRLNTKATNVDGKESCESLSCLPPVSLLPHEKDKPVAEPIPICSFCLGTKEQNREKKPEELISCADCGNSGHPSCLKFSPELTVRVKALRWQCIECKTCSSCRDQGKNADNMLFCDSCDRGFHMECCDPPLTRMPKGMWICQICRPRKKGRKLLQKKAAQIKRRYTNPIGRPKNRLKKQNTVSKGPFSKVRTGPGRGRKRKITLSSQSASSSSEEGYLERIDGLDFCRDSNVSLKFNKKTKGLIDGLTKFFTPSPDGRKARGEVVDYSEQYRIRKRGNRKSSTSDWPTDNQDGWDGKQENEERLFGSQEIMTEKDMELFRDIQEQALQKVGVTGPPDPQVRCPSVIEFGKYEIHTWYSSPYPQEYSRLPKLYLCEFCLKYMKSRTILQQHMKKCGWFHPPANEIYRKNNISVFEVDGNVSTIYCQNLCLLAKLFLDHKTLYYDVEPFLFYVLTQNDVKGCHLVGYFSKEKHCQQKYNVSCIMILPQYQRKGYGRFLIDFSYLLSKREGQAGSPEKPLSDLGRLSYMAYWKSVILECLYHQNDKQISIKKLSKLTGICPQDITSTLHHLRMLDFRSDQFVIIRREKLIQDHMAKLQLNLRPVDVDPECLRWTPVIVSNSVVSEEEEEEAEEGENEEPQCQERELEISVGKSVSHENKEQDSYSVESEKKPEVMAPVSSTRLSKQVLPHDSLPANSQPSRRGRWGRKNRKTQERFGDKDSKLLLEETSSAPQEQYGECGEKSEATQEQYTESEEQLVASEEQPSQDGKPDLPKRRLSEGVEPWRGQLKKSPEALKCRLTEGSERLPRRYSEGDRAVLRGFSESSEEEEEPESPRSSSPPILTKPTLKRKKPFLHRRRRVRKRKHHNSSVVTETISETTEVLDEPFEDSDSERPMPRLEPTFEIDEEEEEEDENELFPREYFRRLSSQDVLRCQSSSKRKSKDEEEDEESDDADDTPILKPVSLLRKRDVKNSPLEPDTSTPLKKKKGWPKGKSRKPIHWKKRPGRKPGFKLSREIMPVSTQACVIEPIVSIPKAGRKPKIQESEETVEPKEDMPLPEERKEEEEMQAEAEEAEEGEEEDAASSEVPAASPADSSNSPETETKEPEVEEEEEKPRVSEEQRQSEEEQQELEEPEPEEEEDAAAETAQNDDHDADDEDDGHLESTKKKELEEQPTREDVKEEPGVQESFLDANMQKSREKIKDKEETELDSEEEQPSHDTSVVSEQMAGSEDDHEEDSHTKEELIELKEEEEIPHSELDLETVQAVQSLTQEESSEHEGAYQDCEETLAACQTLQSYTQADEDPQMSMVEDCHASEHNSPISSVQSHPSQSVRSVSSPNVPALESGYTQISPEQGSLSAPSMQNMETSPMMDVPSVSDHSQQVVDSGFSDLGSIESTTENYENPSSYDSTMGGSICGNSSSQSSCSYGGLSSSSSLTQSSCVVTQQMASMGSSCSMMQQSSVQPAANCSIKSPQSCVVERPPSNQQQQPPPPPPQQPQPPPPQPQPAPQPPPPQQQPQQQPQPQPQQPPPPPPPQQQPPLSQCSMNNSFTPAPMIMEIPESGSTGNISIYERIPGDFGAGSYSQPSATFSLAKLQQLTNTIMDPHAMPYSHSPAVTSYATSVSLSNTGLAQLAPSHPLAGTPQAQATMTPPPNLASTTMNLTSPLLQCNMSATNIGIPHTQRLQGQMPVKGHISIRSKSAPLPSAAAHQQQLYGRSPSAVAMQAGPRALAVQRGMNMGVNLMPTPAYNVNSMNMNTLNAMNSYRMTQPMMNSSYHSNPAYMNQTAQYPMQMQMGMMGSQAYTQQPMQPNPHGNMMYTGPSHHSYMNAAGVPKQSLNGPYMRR
SMILES,anti-tumor activity against ER-positive breast cancer [1],Ki (KAT6A) [nM],Ki (KAT5) [nM],KAT5/ KAT6A (KAT5),KAT5/ KAT6B (KAT5),Ki (KAT6B) [nM],Ki (KAT7) [nM],KAT7/ KAT6A (KAT7),KAT7/ KAT6B (KAT7),IC50 [2] [nM]
COc1cccc(OC)c1S(=O)(=O)Nc1noc2cc(Cn3cccn3)cc(OC)c12 [CTx-648],excellent in vivo and in vitro anti-tumor activity,,,,,,,,,
"COc1ccc2c(c1S(=O)(=O)Nc1noc3cc(Cn4cccn4)c(F)c(OC)c13)OCCN2C(C)=O [Compound 110, N-(6-((1H-Pyrazol-1-yl)methyl)-5-fluoro-4-methoxybenzo[d]isoxazol-3-yl)-4-acetyl-7-methoxy-3,4-dihydro-2H-benzo[b][1,4]oxazine-8-sulfonamide]",,0.29,1150,3967,719,1.6,64.5,223,40,0.5 to 2
"COc1ccc2c(c1S(=O)(=O)Nc1noc3cc(Cn4cccn4)c(F)c(OC)c13)OCCN2S(C)(=O)=O [Compound 121, N-(6-((1H-Pyrazol-1-yl)methyl)-5-fluoro-4-methoxybenzo[d]isoxazol-3-yl)-7-methoxy-4-(methylsulfonyl)-3,4-dihydro-2H-benzo[b][1,4]oxazine-8-sulfonamide]",,0.28,577,2061,641,0.9,96,343,107,2 to 10
